According to publication PMC12444563 (ACS Omega, 2025):
Like-named read-outs stand apart in the source and are kept apart here. Starred links: 1 amine or outer side, 2 acyl side, 3 side chain; linkers in the order of their positions; H or OH if unused. Non-standard residues stand in square brackets, D forms with d. Residues, ends and D or L forms follow the SMILES beside them. *: point of attachment. Paclitaxel(2'-OCO-DMEDA) = CC(=O)O[C@H]1C(=O)[C@@]2(C)[C@H]([C@H](OC(=O)c3ccccc3)[C@]3(O)C[C@H](OC(=O)[C@H](OC(=O)N(C)CCN(C)*)[C@@H](NC(=O)c4ccccc4)c4ccccc4)C(C)=C1C3(C)C)[C@]1(OC(C)=O)CO[C@@H]1C[C@@H]2O; Fmoc = O=C(OCC1c2ccccc2-c2ccccc21)*; PABC = O=C(OCc1ccc(N[*:1])cc1)[*:2]

How the values were obtained:
[1] = Liver S9 fraction stability assay, human; format: in vitro ADME; conditions: 37 °C; for remaining at 0.5 h, 1 μM / remaining at 1.5 h, 1 μM: male, human, liver S9 fraction, read-out: S9 stability (matrix: human) % remaining; for remaining at 0.5 h, 1 μM: 30 min
Method: The plasma stability assays were performed by Selvita SA (Krakow, Poland) following the protocol described in the Supporting Information. For the use of human plasma, consent was obtained from the subject or from the next of kin.
9. Plasma stability assays […]
Protocol for S9 fraction: a stock solution of compounds 1-4 in DMSO was incubated in human (male, pooled, commercially obtained from Xeno-tech lot: 2310104) and rat (male, pooled, commercially obtained from Xeno-tech (lot: 2210317)) S9 fraction at a final concentration of 1 μM (final concentration of DMSO = 0.5 %). The samples were incubated at 37 °C with a shaking of 450 rpm.
Aliquots of the samples were analyzed at time 0, 30 and 90 minutes by LC-MS/MS analysis.
The areas of the peak of the compounds 1-4 in the LC chromatogram were used to evaluate stability profile. The percentage of residual compounds 1-4 was calculated as the ratio between the area of the peak of the analyte and the area of the internal standard.
% residual compound = Area analyte ∙ 100
Table S7. LC-MS data of the stability assays in plasma extracts of compound 1.
Stability assays compound 1
Time Plasma stability Plasma stability S9 stability S9 stability
(min.) (matrix: rat) (matrix: human) Time (min.) (matrix: rat) (matrix: human) % remaining % remaining % remaining % remaining
Table S8. LC-MS data of the stability assays in plasma extracts of compound 2.
Stability assays compound 2

[2] = pH stability assay (buffers pH 5.4 and 7.4, UHPLC-HRMS); format: physicochemical; conditions: 37 °C, average of two replicates
Method: The pH stability assay was performed by incubating compounds 1–4 at 37 °C in buffers at pH 5.4 and 7.4 under gentle shaking conditions. More specifically, a solution of 20 mM AcONa and 1 mM EDTA in mQ water was used as a pH 5.4 buffer. A solution of PBS tablets in mQ water was used as a pH 7.4 buffer. A 1 mM stock solution of compounds 1–4 in dry DMSO was prepared and a […] solution was then obtained by dilution of 5.85 μL of the stock solution in 44.15 μL of dry DMSO. Then, 6 μL of the […] compound solution was diluted into 135 μL of the desired buffer, and the solution was incubated at 37 °C under gently shaking conditions. Samples aliquots (10 μL) were taken out at 15, 30 min and 1, 2, and 4 h and quenched with 10 μL of acetonitrile. The solutions were then injected in UHPLC-HRMS to monitor the stability of compounds 1–4 under different pH conditions. UHPLC-MS analyses were carried out as previously described for the Cathepsin B cleavage assay. The percentage of the residual compound was calculated as described above.
The stability of compounds 1–4 and of the free drug PTX was evaluated in vitro by UHPLC-Orbitrap analysis incubating the samples at 37 °C in buffer solutions at pH 5.4, to simulate the pH inside the cancer cells, and at physiological pH 7.4. The same buffer of the Cathepsin B cleavage assay was used for the test at pH 5.4. The percentage of residual compounds 1–4 was measured over time by calculating the ratio between the areas of the peak of the full compound at the desired time point and at time zero, and the results were compared with the percentage of residual compounds 1–4 calculated during the Cathepsin B cleavage assay (Tables S6).

[3] = target: T1, bovine spleen Cathepsin B (Bos taurus, UniProt P07688); experiment: Cathepsin B cleavage assay (UHPLC-HRMS Orbitrap analysis); format: biochemical; conditions: for % residual compound, Average %: 37 °C, pH 5.4, 5 μM, triplicate
T1 construct: bovine spleen Cathepsin B (SigmaAldrich C6286, ≥10 units/mg protein); purchased SigmaAldrich C6286; host or cells: bovine spleen (tissue-derived)
Method: The Cathepsin B cleavage assay was performed by incubating compounds 1–4 at 37 °C under gently shaking conditions in the presence of the active form of Cathepsin B. More specifically, 122.4 μL of an enzyme-activating solution (composed of 7.48 mg of L-cysteine dissolved in 2 mL of a buffer solution containing 20 mM NaOAc, 1 mM EDTA, pH 5.4 to give a final cysteine concentration of 30.88 mM) was mixed with 12.6 μL of enzyme stock solution, previously prepared by solubilization of bovine spleen Cathepsin B (SigmaAldrich C6286, ≥10 units/mg protein) in 1 mL of buffer solution (without cysteine) to give a concentration of enzyme stock solution of 12 units/mL. After the dilution, the final concentration of Cathepsin B was 1.12 u/mL. Then, the diluted enzyme solution was incubated at 37 °C for 15 min to activate Cathepsin B. After 15 min, 6 μL of 117 μM compound solution, previously prepared by diluting 5.85 μL of 1 mM stock solution of the compound in 44.15 μL of dry DMSO (giving a 117 μM solution), was added to the test tube and the cleavage assay solution was incubated at 37 °C under gentle shaking conditions. […] The solutions were then centrifuged for 10 min at 6000 rpm. Blank solutions were prepared for each compound by dilution of 6 μL of a 117 μM compound solution into 135 μL of an enzyme-activating solution. UHPLC-MS analyses were carried out using a Vanquish UHPLC System (Thermo Fisher Scientific) and Orbitrap Exploris 120 (Thermo Fisher Scientific). Thermo Scientific Xcalibur software was used to control the instruments and acquire the data. Freestyle 1.8 software was used for processing the data. UHPLC chromatographic separations were performed on a reversed-phase column Accucore C18 50 × 2.1 mm, 2.6 μm (Thermo Fisher Scientific). A gradient system was used with the mobile phase consisting of solvent A: H2O + 0.05% formic acid and solvent B: acetonitrile. The areas of the peak of compounds 1–4 in the extracted ion chromatogram were used to evaluate the kinetics of the cleavage process. The percentage of residual compound was calculated as the ratio between the areas of the peak of the full compound at the desired time point and in the blank analysis. %Residualcompound=areacompoundatthedesiredtimepoint/areacompoundintheblanksolution×100

[4] = PBS pH 7.4, pH 7.4 PBS, 30 min, read-out: Stability pH 7.4, % residual compound
[5] = acetate/EDTA buffer pH 5.4, pH 5.4 buffer, 120 min, read-out: Stability pH 5.4, % residual compound
[6] = acetate/EDTA buffer pH 5.4, pH 5.4 buffer, 240 min (4 h), read-out: Stability pH 5.4, % residual compound
[7] = 2 min incubation with Cathepsin B
[8] = 15 min incubation with Cathepsin B
[9] = 30 min incubation with Cathepsin B
[10] = 60 min incubation with Cathepsin B
[11] = 120 min incubation with Cathepsin B

| SMILES | remaining at 0.5 h, 1 μM [1] | remaining at 1.5 h, 1 μM ([1]; 90 min (1.5 h)) | remaining at 0.5 h, 4.98 µM [2, 4] | Stability pH 7.4, % residual compound ([2]; pH 7.4 PBS, 240 min) | % residual compound, Average % [3, 7] | % residual compound, Average % [3, 8] | % residual compound, Average % [3, 9] | % residual compound, Average % [3, 10] | % residual compound, Average % [3, 11] | % residual compound, % R1 ([3]; replicate R1, 2 min) | % residual compound, % R1 ([3]; replicate R1, 15 min) | % residual compound, % R1 ([3]; replicate R1, 30 min) | % residual compound, % R1 ([3]; replicate R1, 60 min) | % residual compound, % R1 ([3]; replicate R1, 120 min) | % residual compound, % R1 ([3]; replicate R1, 240 min) | % residual compound, % R3 ([3]; replicate R3, 2 min) | % residual compound, % R3 ([3]; replicate R3, 15 min) | % residual compound, % R3 ([3]; replicate R3, 30 min) | % residual compound, % R3 ([3]; replicate R3, 60 min) | % residual compound, % R3 ([3]; replicate R3, 120 min) | other results |
| --- | --- | --- | --- | --- | --- | --- | --- | --- | --- | --- | --- | --- | --- | --- | --- | --- | --- | --- | --- | --- | --- |
| CC(=O)O[C@H]1C(=O)[C@@]2(C)[C@H]([C@H](OC(=O)c3ccccc3)[C@]3(O)C[C@H](OC(=O)[C@H](OC(=O)N(C)CCN(C)C(=O)OCc4ccc(NC(=O)[C@H](C)NC(=O)[C@@H](NC(=O)OCC5c6ccccc6-c6ccccc65)C(C)C)cc4)[C@@H](NC(=O)c4ccccc4)c4ccccc4)C(C)=C1C3(C)C)[C@]1(OC(C)=O)CO[C@@H]1C[C@@H]2O [Compound 4, Fmoc-VA-PABC-diamine-PTX] | 107% | 79.7% | 94.7% | 95.00% | 98.31% | 89.84% | 76.32% | 72.91% | 58.50% | 105.08% | 98.99% | 79.84% | 76.95% | 61.83% | 68.01% | 98.31% | 83.72% | 80.54% | 75.94% | 52.91% | S9 stability (matrix: human) % remaining ([1]; 1 μM, 90 min (1.5 h)): 79.75%; remaining at 0.5 h, 4.98 µM ([2]; acetate/EDTA buffer pH 5.4, pH 5.4 buffer, 30 min, read-out: Stability pH 5.4, % residual compound): 90.8%; remaining at 2 h, 4.98 µM [2, 5]: 52.5%; remaining at 4 h, 4.98 µM [2, 6]: 47.5%; Stability pH 5.4, % residual compound ([2]; pH 5.4 buffer, 240 min (4 h)): 47.4%; Stability pH 7.4, % residual compound ([2]; pH 7.4 PBS, 120 min): 96.21%; % residual compound, % R3 ([3]; replicate R3, 240 min): 49.81% |
| CC(=O)O[C@H]1C(=O)[C@@]2(C)[C@H]([C@H](OC(=O)c3ccccc3)[C@]3(O)C[C@H](OC(=O)[C@H](OC(=O)N(C)CCN(C)C(=O)OCc4ccc(NC(=O)CNC(=O)[C@H](CC(C)C)NC(=O)[C@@H]5CCCN5C(=O)CNC(=O)OCC5c6ccccc6-c6ccccc65)cc4)[C@@H](NC(=O)c4ccccc4)c4ccccc4)C(C)=C1C3(C)C)[C@]1(OC(C)=O)CO[C@@H]1C[C@@H]2O [Compound 1, Fmoc-GPLG-PABC-diamine-PTX] (Fmoc-GPLG[PABC]-{Paclitaxel(2'-OCO-DMEDA)}) | 104% | 95% | 115% | 113.04% | 94.40% | 80.50% | 73.35% | 68.45% | 65.40% | 108.85% | 85.04% | 73.97% | 68.69% | 69.51% | 56.09% | 97.22% | 78.25% | 74.08% | 69.05% | 67.07% | Stability pH 5.4, % residual compound ([2]; pH 5.4 buffer, 30 min): 93.60%; Stability pH 5.4, % residual compound ([2]; pH 5.4 buffer, 120 min): 93.87%; Stability pH 5.4, % residual compound ([2]; pH 5.4 buffer, 240 min (4 h)): 93.78%; Stability pH 7.4, % residual compound ([2]; pH 7.4 PBS, 120 min): 97.00%; peak of free Paclitaxel in the incubated solution ([3]; 4 h incubation with Cathepsin B, HRMS): not possible to observe; peak of free PTX in the incubated solution ([3]; 24 h incubation with Cathepsin B, HRMS): confirmed the presence; cleavage kinetics compared within compounds 1-4 ([3]; Cathepsin B, compound 1: initial time points 2 min to 1 h, compound 2: over 4 h): fastest; % residual compound, % R3 ([3]; replicate R3, 240 min): 70.97% |
| CC(=O)O[C@H]1C(=O)[C@@]2(C)[C@H]([C@H](OC(=O)c3ccccc3)[C@]3(O)C[C@H](OC(=O)[C@H](OC(=O)N(C)CCN(C)C(=O)OCc4ccc(NC(=O)CNC(=O)[C@H](CC(C)C)NC(=O)[C@H](Cc5ccccc5)NC(=O)CNC(=O)OCC5c6ccccc6-c6ccccc65)cc4)[C@@H](NC(=O)c4ccccc4)c4ccccc4)C(C)=C1C3(C)C)[C@]1(OC(C)=O)CO[C@@H]1C[C@@H]2O [Compound 2, Fmoc-GFLG-PABC-diamine-PTX] (Fmoc-GFLG[PABC]-{Paclitaxel(2'-OCO-DMEDA)}) | 133% | 95.2% | 90.6% | 91.99% | 99.63% | 98.45% | 95.35% | 95.89% | 94.14% | 99.33% | 98.52% | 92.26% | 92.45% | 99.27% | 96.36% | 104.39% | 102.02% | 95.37% | 97.64% | 90.86% | remaining at 2 h, 4.98 µM ([2]; PBS pH 7.4, pH 7.4 PBS, 120 min, read-out: Stability pH 7.4, % residual compound): 90.5%; remaining at 2 h, 4.98 µM [2, 5]: 85.4%; remaining at 4 h, 4.98 µM [2, 6]: 86.8%; Stability pH 5.4, % residual compound ([2]; pH 5.4 buffer, 30 min): 92.49%; % residual compound, % R3 ([3]; replicate R3, 240 min): 89.52% |
